Assay results taken from BigSolDB 2.1.

O=C(CCc1ccc(O)cc1)c1c(O)cc(O)cc1O
solubility (mole fraction)
Conditions	288.2 K	298.2 K	308.2 K	318.2 K	328.2 K
in 1,4-dioxane	0.0211	0.0249	0.029	0.0331	0.0384
in ethanol	0.0345	0.0373	0.0399	0.0421	0.0447
in ethyl acetate	0.0266	0.0283	0.0309	0.0343	0.037
in isopropanol	0.0351	0.0374	0.039	0.0411	0.0429
in methanol	0.0245	0.0259	0.0275	0.0299	0.0317
in n-butanol	0.0336	0.035	0.0362	0.0378	0.0394
in n-butyl acetate	0.0258	0.0281	0.0305	0.0323	0.0346
in n-hexanol	0.0289	0.0313	0.0332	0.0347	0.0366
in n-pentanol	0.0301	0.0324	0.034	0.0357	0.0378
in n-propanol	0.03	0.0318	0.0336	0.0358	0.0382
in sec-butanol	0.0101	0.014	0.0175	0.0217	0.0244
in water	3.46e-06	5.76e-06	1.12e-05	1.7e-05	2.7e-05
